In ChEMBL document CHEMBL3885861, “Open TG-GATES”:

Organism: Rattus norvegicus
Assay: Open TG-GATES - Regimen: Daily Repeat
Assay type: toxicity, organism-based, Sprague-Dawley
Set-up: regimen Daily Repeat, gender Male, age 6 weeks
Conditions: in vivo, po, 300 mg/kg, route gavage, dose level Middle; for APTT / Bas / Eos / Fbg / Hb / Ht / Lym / MCH / MCHC / MCV / Mono / Neu / PT / Plat / RBC / Ret / WBC: tissue Blood; for KIDNEY_L / KIDNEY_R / KIDNEY_TOTAL: tissue Kidney; for LIVER: tissue Liver; for A/G / ALP / ALT / AST / BUN / CRE / Ca / Cl / DBIL / GLC / IP / K / LDH / Na / PL / RALB / TBIL / TC / TG / TP / gamma-GTP: tissue Plasma

O=C(OC[C@H]1O[C@@H](OC(=O)c2cc(O)c(O)c(OC(=O)c3cc(O)c(O)c(O)c3)c2)[C@H](OC(=O)c2cc(O)c(O)c(OC(=O)c3cc(O)c(O)c(O)c3)c2)[C@@H](OC(=O)c2cc(O)c(O)c(OC(=O)c3cc(O)c(O)c(O)c3)c2)[C@@H]1OC(=O)c1cc(O)c(O)c(OC(=O)c2cc(O)c(O)c(O)c2)c1)c1cc(O)c(O)c(OC(=O)c2cc(O)c(O)c(O)c2)c1 [TANNIC ACID]
TERMINAL_BW (72 h, time 3 day): 215.8 g | APTT (72 h, time 3 day): 16.1 s | Bas (72 h, time 3 day): 0% | Eos (72 h, time 3 day): 1% | Fbg (72 h, time 3 day): 240.8 mg/dL | Hb (72 h, time 3 day): 13.1 g/dL | Ht (72 h, time 3 day): 39.3% | Lym (72 h, time 3 day): 76.8% | MCH (72 h, time 3 day): 21.6 pg | MCHC (72 h, time 3 day): 33.3% | MCV (72 h, time 3 day): 64.9 fL | Mono (72 h, time 3 day): 10% | Neu (72 h, time 3 day): 12.4% | PT (72 h, time 3 day): 11.5 s | Plat (72 h, time 3 day): 118.8 x10_4/uL | RBC (72 h, time 3 day): 606.2 x10_4/ul | Ret (72 h, time 3 day): 7.7% | WBC (72 h, time 3 day): 77.2 x10_2/uL | KIDNEY_L (72 h, time 3 day): 1 g | KIDNEY_R (72 h, time 3 day): 1 g | KIDNEY_TOTAL (72 h, time 3 day): 1.9 g | LIVER (72 h, time 3 day): 10.9 g | A/G (72 h, time 3 day): 2.1 | ALP (72 h, time 3 day): 808.4 IU/L | ALT (72 h, time 3 day): 35 IU/L | AST (72 h, time 3 day): 62.8 IU/L | BUN (72 h, time 3 day): 17.8 mg/dL | CRE (72 h, time 3 day): 0.5 mg/dL | Ca (72 h, time 3 day): 10.9 mg/dL | Cl (72 h, time 3 day): 103.4 meq/L | DBIL (72 h, time 3 day): 0.004 mg/dL | GLC (72 h, time 3 day): 207.6 mg/dL | IP (72 h, time 3 day): 8.7 mg/dL | K (72 h, time 3 day): 4.6 meq/L | LDH (72 h, time 3 day): 83 IU/L | Na (72 h, time 3 day): 139 meq/L | PL (72 h, time 3 day): 159.2 mg/dL | RALB (72 h, time 3 day): 3.8 g/dL | TBIL (72 h, time 3 day): 0.3 mg/dL | TC (72 h, time 3 day): 84.6 mg/dL | TG (72 h, time 3 day): 109.2 mg/dL | TP (72 h, time 3 day): 5.6 g/dL | gamma-GTP (72 h, time 3 day): 0.6 IU/L | TERMINAL_BW ([…], time 7 day): 250.4 g | TERMINAL_BW ([…], time 14 day): 315.8 g | TERMINAL_BW ([…], time 28 day): 397.8 g | APTT ([…], time 7 day): 17.1 s | Bas ([…], time 7 day): 0% | Eos ([…], time 7 day): 1.4% | Fbg ([…], time 7 day): 226 mg/dL | Hb ([…], time 7 day): 13.4 g/dL | Ht ([…], time 7 day): 40.6% | Lym ([…], time 7 day): 81.2% | MCH ([…], time 7 day): 21.3 pg | MCHC ([…], time 7 day): 33.1% | MCV ([…], time 7 day): 64.2 fL | Mono ([…], time 7 day): 4.8% | Neu ([…], time 7 day): 12.8% | PT ([…], time 7 day): 10.9 s | Plat ([…], time 7 day): 123.2 x10_4/uL | RBC ([…], time 7 day): 631.8 x10_4/ul | Ret ([…], time 7 day): 6.5% | WBC ([…], time 7 day): 103.7 x10_2/uL | APTT ([…], time 14 day): 16.7 s | Bas ([…], time 14 day): 0% | Eos ([…], time 14 day): 1.2% | Fbg ([…], time 14 day): 261.2 mg/dL | Hb ([…], time 14 day): 13.7 g/dL | Ht ([…], time 14 day): 41.1% | Lym ([…], time 14 day): 75.4% | MCH ([…], time 14 day): 20.7 pg | MCHC ([…], time 14 day): 33.4% | MCV ([…], time 14 day): 62.1 fL | Mono ([…], time 14 day): 8% | Neu ([…], time 14 day): 15.4% | PT ([…], time 14 day): 11.5 s | Plat ([…], time 14 day): 123.3 x10_4/uL | RBC ([…], time 14 day): 662.6 x10_4/ul | Ret ([…], time 14 day): 5.5% | WBC ([…], time 14 day): 101.9 x10_2/uL | APTT ([…], time 28 day): 16.6 s | Bas ([…], time 28 day): 0% | Eos ([…], time 28 day): 1.8% | Fbg ([…], time 28 day): 232.8 mg/dL | Hb ([…], time 28 day): 15 g/dL | Ht ([…], time 28 day): 45.2% | Lym ([…], time 28 day): 77.8% | MCH ([…], time 28 day): 19.6 pg | MCHC ([…], time 28 day): 33.2% | MCV ([…], time 28 day): 59.1 fL | Mono ([…], time 28 day): 6.2% | Neu ([…], time 28 day): 14.5% | PT ([…], time 28 day): 11.9 s | Plat ([…], time 28 day): 113.3 x10_4/uL | RBC ([…], time 28 day): 765.2 x10_4/ul | Ret ([…], time 28 day): 3% | WBC ([…], time 28 day): 112.2 x10_2/uL | KIDNEY_L ([…], time 7 day): 1 g | KIDNEY_R ([…], time 7 day): 1 g | KIDNEY_TOTAL ([…], time 7 day): 2.1 g | KIDNEY_L ([…], time 14 day): 1.4 g | KIDNEY_R ([…], time 14 day): 1.3 g | KIDNEY_TOTAL ([…], time 14 day): 2.7 g | KIDNEY_L ([…], time 28 day): 1.4 g | KIDNEY_R ([…], time 28 day): 1.4 g | KIDNEY_TOTAL ([…], time 28 day): 2.9 g | LIVER ([…], time 7 day): 12.2 g | LIVER ([…], time 14 day): 14.7 g | LIVER ([…], time 28 day): 17 g | A/G ([…], time 7 day): 1.6 | ALP ([…], time 7 day): 926.8 IU/L | ALT ([…], time 7 day): 35.8 IU/L | AST ([…], time 7 day): 62.2 IU/L | BUN ([…], time 7 day): 19.4 mg/dL | CRE ([…], time 7 day): 0.6 mg/dL | Ca ([…], time 7 day): 10.8 mg/dL | Cl ([…], time 7 day): 103 meq/L | DBIL ([…], time 7 day): 0.016 mg/dL | GLC ([…], time 7 day): 205.6 mg/dL | IP ([…], time 7 day): 7.9 mg/dL | K ([…], time 7 day): 4.5 meq/L | LDH ([…], time 7 day): 98.6 IU/L | Na ([…], time 7 day): 137.4 meq/L | PL ([…], time 7 day): 154.6 mg/dL | RALB ([…], time 7 day): 3.7 g/dL | TBIL ([…], time 7 day): 0.4 mg/dL | TC ([…], time 7 day): 81.2 mg/dL | TG ([…], time 7 day): 119.6 mg/dL | TP ([…], time 7 day): 6.1 g/dL | gamma-GTP ([…], time 7 day): 1.6 IU/L | A/G ([…], time 14 day): 1.7 | ALP ([…], time 14 day): 702.2 IU/L | ALT ([…], time 14 day): 32.4 IU/L | AST ([…], time 14 day): 62.8 IU/L | BUN ([…], time 14 day): 20 mg/dL | CRE ([…], time 14 day): 0.6 mg/dL | Ca ([…], time 14 day): 10.7 mg/dL | Cl ([…], time 14 day): 103.4 meq/L | DBIL ([…], time 14 day): 0.008 mg/dL | GLC ([…], time 14 day): 202.4 mg/dL | IP ([…], time 14 day): 8.3 mg/dL | K ([…], time 14 day): 4.4 meq/L | LDH ([…], time 14 day): 83.4 IU/L | Na ([…], time 14 day): 139.8 meq/L | PL ([…], time 14 day): 151.6 mg/dL | RALB ([…], time 14 day): 3.8 g/dL | TBIL ([…], time 14 day): 0.3 mg/dL | TC ([…], time 14 day): 79.6 mg/dL | TG ([…], time 14 day): 116.8 mg/dL | TP ([…], time 14 day): 6 g/dL | gamma-GTP ([…], time 14 day): 1.4 IU/L | A/G ([…], time 28 day): 1.8 | ALP ([…], time 28 day): 534 IU/L | ALT ([…], time 28 day): 32.2 IU/L | AST ([…], time 28 day): 55.5 IU/L | BUN ([…], time 28 day): 20 mg/dL | CRE ([…], time 28 day): 0.6 mg/dL | Ca ([…], time 28 day): 11 mg/dL | Cl ([…], time 28 day): 105.8 meq/L | DBIL ([…], time 28 day): 0.01 mg/dL | GLC ([…], time 28 day): 201.8 mg/dL | IP ([…], time 28 day): 7.9 mg/dL | K ([…], time 28 day): 4.5 meq/L | LDH ([…], time 28 day): 83.2 IU/L | Na ([…], time 28 day): 139.5 meq/L | PL ([…], time 28 day): 141.8 mg/dL | RALB ([…], time 28 day): 4 g/dL | TBIL ([…], time 28 day): 0.3 mg/dL | TC ([…], time 28 day): 70.2 mg/dL | TG ([…], time 28 day): 133.8 mg/dL | TP ([…], time 28 day): 6.2 g/dL | gamma-GTP ([…], time 28 day): 0.5 IU/L
